Laboratory results as given in patent US9302999B2, “Substituted triazoles as herbicides” (E. I. DU PONT DE NEMOURS AND COMPANY, priority 2012, dated 2016).
Read-outs that look alike come from different tables or passages of the source.

Assays:
Format in all cases: in vivo
[1] = tested on: morningglory (Ipomoea spp.); assay: Test A pre-/postemergence: morningglory; details: Ipomoea, 240 h; for pest or weed control at 125 g/ha: 125 g ai/ha; for pest or weed control at 500 g/ha: 500 g ai/ha
Outline: (§1)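 Pre: directed soil spray after planting in loam + sand. Post: same formulation (non-phytotoxic solvent + surfactant) on 1–2-leaf plants, 2–10 cm. Greenhouse ~10 d; visual injury 0–100 vs untreated.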

[2] = tested on: wheat (Triticum aestivum); assay: Test A pre-/postemergence: wheat; details: Triticum aestivum, 240 h; for plant injury at 125 g/ha: 125 g ai/ha; for plant injury at 500 g/ha: 500 g ai/ha
Outline: as §1

[3] = tested on: foxtail, giant (giant foxtail, Setaria faberii); assay: Test A pre-/postemergence: foxtail, giant; details: Setaria faberi, 240 h; for pest or weed control at 125 g/ha: 125 g ai/ha; for pest or weed control at 500 g/ha: 500 g ai/ha
Outline: as §1

[4] = tested on: velvetleaf (Abutilon theophrasti); assay: Test A pre-/postemergence: velvetleaf; details: Abutilon theophrasti, 240 h; for pest or weed control at 125 g/ha: 125 g ai/ha; for pest or weed control at 500 g/ha: 500 g ai/ha
Outline: as §1

[5] = tested on: barnyardgrass (Echinochloa crus-galli); assay: Test A pre-/postemergence: barnyardgrass; details: Echinochloa crus-galli, 240 h; for pest or weed control at 125 g/ha: 125 g ai/ha; for pest or weed control at 500 g/ha: 500 g ai/ha
Outline: as §1

[6] = post-emergence, Postemergence, 0 to 100 scale, 0 is no effect, 100 is complete control, read-out: Morningglory plant response rating
[7] = post-emergence, Postemergence, visual rating on 0 to 100 scale (0 no effect, 100 complete control), approximately ten days, read-out: Morningglory plant response rating
[8] = pre-emergence, Preemergence, 0 to 100 scale (0 no effect, 100 complete control), read-out: Plant response rating, Morningglory
[9] = post-emergence, Postemergence, 0 to 100 scale, 0 is no effect, 100 is complete control, read-out: Wheat plant response rating
[10] = post-emergence, Postemergence, visual rating on 0 to 100 scale (0 no effect, 100 complete control), approximately ten days, read-out: Wheat plant response rating
[11] = pre-emergence, Preemergence, 0 to 100 scale (0 no effect, 100 complete control), read-out: Plant response rating, Wheat
[12] = post-emergence, Postemergence, 0 to 100 scale, 0 is no effect, 100 is complete control, read-out: Foxtail, Giant plant response rating
[13] = post-emergence, Postemergence, visual rating on 0 to 100 scale (0 no effect, 100 complete control), approximately ten days, read-out: Foxtail, Giant plant response rating
[14] = pre-emergence, Preemergence, 0 to 100 scale (0 no effect, 100 complete control), read-out: Plant response rating, Foxtail, Giant
[15] = post-emergence, Postemergence, 0 to 100 scale, 0 is no effect, 100 is complete control, read-out: Velvetleaf plant response rating
[16] = post-emergence, Postemergence, visual rating on 0 to 100 scale (0 no effect, 100 complete control), approximately ten days, read-out: Velvetleaf plant response rating
[17] = pre-emergence, Preemergence, 0 to 100 scale (0 no effect, 100 complete control), read-out: Plant response rating, Velvetleaf
[18] = post-emergence, Postemergence, 0 to 100 scale, 0 is no effect, 100 is complete control, read-out: Barnyardgrass plant response rating
[19] = post-emergence, Postemergence, visual rating on 0 to 100 scale (0 no effect, 100 complete control), approximately ten days, read-out: Barnyardgrass plant response rating
[20] = pre-emergence, Preemergence, 0 to 100 scale (0 no effect, 100 complete control), read-out: Plant response rating, Barnyardgrass

| SMILES | pest or weed control at 125 g/ha [1, 6] | pest or weed control at 500 g/ha [1, 7] | plant injury at 125 g/ha [2, 9] | plant injury at 500 g/ha [2, 10] | pest or weed control at 125 g/ha [3, 12] | pest or weed control at 500 g/ha [3, 13] | pest or weed control at 125 g/ha [4, 15] | pest or weed control at 500 g/ha [4, 16] | pest or weed control at 125 g/ha [5, 18] | pest or weed control at 500 g/ha [5, 19] | other results |
| --- | --- | --- | --- | --- | --- | --- | --- | --- | --- | --- | --- |
| COc1nn(-c2ccc(C(F)(F)F)cc2)nc1Cn1ccc(C(F)(F)F)n1 [Compound 17, 4-methoxy-2-[4-(trifluoromethyl)phenyl]-5-[[3-(trifluoromethyl)-1H-pyrazol-1-yl]methyl]-2H-1,2,3-triazole] | 50% | 90% | 20% | 40% | 60% | 80% | 90% | 100% | 30% | 90% | pest or weed control at 125 g/ha [1, 8]: 0%; pest or weed control at 500 g/ha ([1]; pre-emergence, Preemergence, 0 to 100 scale, 0 is no effect, 100 is complete control, read-out: Plant response rating, Morningglory): 50%; plant injury at 125 g/ha [2, 11]: 0%; plant injury at 500 g/ha ([2]; pre-emergence, Preemergence, 0 to 100 scale, 0 is no effect, 100 is complete control, read-out: Plant response rating, Wheat): 0%; pest or weed control at 125 g/ha [3, 14]: 90%; pest or weed control at 500 g/ha ([3]; pre-emergence, Preemergence, 0 to 100 scale, 0 is no effect, 100 is complete control, read-out: Plant response rating, Foxtail, Giant): 100%; pest or weed control at 125 g/ha [4, 17]: 30%; pest or weed control at 500 g/ha ([4]; pre-emergence, Preemergence, 0 to 100 scale, 0 is no effect, 100 is complete control, read-out: Plant response rating, Velvetleaf): 40%; pest or weed control at 125 g/ha [5, 20]: 30%; pest or weed control at 500 g/ha ([5]; pre-emergence, Preemergence, 0 to 100 scale, 0 is no effect, 100 is complete control, read-out: Plant response rating, Barnyardgrass): 90% |
| CCc1nn(-c2ccc(C(F)(F)F)cc2)nc1Oc1cccc(OC(F)(F)F)c1 [Compound 125, 4-ethyl-5-[3-(trifluoromethoxy)phenoxy]-2-[4-(trifluoromethyl)phenyl]-2H-1,2,3-triazole] | 60% | 100% | 0% | 20% | 50% | 60% | 30% | 70% | 0% | 30% | pest or weed control at 125 g/ha ([1]; pre-emergence, Preemergence, 0 to 100 scale where 0 is no effect and 100 is complete control, read-out: Plant response rating, Morningglory): 0%; pest or weed control at 500 g/ha [1, 8]: 10%; plant injury at 125 g/ha ([2]; pre-emergence, Preemergence, 0 to 100 scale where 0 is no effect and 100 is complete control, read-out: Plant response rating, Wheat): 0%; plant injury at 500 g/ha [2, 11]: 0%; pest or weed control at 125 g/ha ([3]; pre-emergence, Preemergence, 0 to 100 scale where 0 is no effect and 100 is complete control, read-out: Plant response rating, Foxtail, Giant): 80%; pest or weed control at 500 g/ha [3, 14]: 90%; pest or weed control at 125 g/ha ([4]; pre-emergence, Preemergence, 0 to 100 scale where 0 is no effect and 100 is complete control, read-out: Plant response rating, Velvetleaf): 0%; pest or weed control at 500 g/ha [4, 17]: 50%; pest or weed control at 125 g/ha ([5]; pre-emergence, Preemergence, 0 to 100 scale where 0 is no effect and 100 is complete control, read-out: Plant response rating, Barnyardgrass): 30%; pest or weed control at 500 g/ha [5, 20]: 50% |
